Measurements reported in publication PMC11352273, “The Proapoptotic Action of Pyrrolidinedione–Thiazolidinone Hybrids towards Human Breast Carcinoma Cells Does Not Depend on Their Genotype” (Cancers, 2024).
Like-named read-outs stand apart in the source and are kept apart here.

Assays:
MCF-10A cells [1] = assay: Clonogenic assay; format: cell-based; conditions: Homo sapiens; for IC50: 72 h exposure, 14 days culture, read-out: IC50 (M ± SD) in clonogenic assay; for inhibition at 50 µM: compound at 50 µM, read-out: inhibition of the formation of colonies
Protocol: (§1) The clonogenic assay was carried out utilizing the previously published methodology. The MCF-7, MDA-MB-231, HCC1954, and MCF-10A cells (500 cells/2 mL) were seeded in a 12-well plate overnight. Afterward, studied derivatives or doxorubicin (1, 2.5, 5, 10, and 50 µM) were added to cells. The media was changed after 72 h to a compound-free one, and the cells were cultured for the following 14 days. Then, the cells were washed, fixed, and stained with 0.1% crystal violet. After washing, the plates were dried at room temperature. The colonies were recorded by ImageJ software (Version 1.30). The value of colonies in control (non-treated cells) was accepted as 100%. The effect of compounds on the colony-forming ability of cells was expressed as the percentage of colonies compared to the control.

HCC1954 cells [2] = assay: Clonogenic assay; format: cell-based, human; conditions: Homo sapiens; HCC1954; 72 h exposure, 14 days culture; read-out: IC50 (M ± SD) in clonogenic assay
Protocol: as §1

MCF-7 cells [3] = assay: Clonogenic assay; format: cell-based, human; conditions: for IC50: Homo sapiens, MCF7, MCF-7, 72 h exposure, 14 days culture, read-out: IC50 (M ± SD) in clonogenic assay; for formation of colonies: MCF-7, compound at 5 µM
Protocol: as §1

MDA-MB-231 cells [4] = assay: Clonogenic assay; format: cell-based, human; conditions: for IC50: Homo sapiens, MDA-MB-231, 72 h exposure, 14 days culture, read-out: IC50 (M ± SD) in clonogenic assay
Protocol: as §1

[5] = test system: MDA-MB-231, 4T1, MCF-7, T-47D, and HCC1954 cells; assay: MTT assay, summary over breast carcinoma cell lines; format: cell-based; conditions: for IC50: Breast carcinoma cell, 24 and 48 h, all five cancer cell lines and all three hybrids together, read-out: IC50, range over breast carcinoma cell lines; for selectivity index (SI = IC50 for MCF-10A/IC50 for human breast tumor cells): range over cell lines and time points
Protocol: (§2) The MCF-7 and MDA-MB-231 cells were cultured in the DMEM medium containing 10% of the FBS, HCC1954, T-47D, and 4T1 cells in the RPMI-1640 medium with the addition of 10% of the FBS, and MCF-10A cells in MEGM Mammary Epithelial Cell Growth Medium BulletKit supplemented with penicillin/streptomycin cocktail and 5% of horse serum. The cells were cultured in a […] atmosphere at 5% CO2 and 37 °C. After trypsinization, cells were counted using a Scepter 3.0 handheld automated cell counter (Millipore, Burlington, MA, USA).
(§3) The MTT test was used to assess the metabolic activity of cells treated with the investigated substances following the Sigma-Aldrich manufacturer’s instructions. Briefly, compounds were added in 100 µL of the cultural medium, and cells were incubated for the next 24 and 48 h. Doxorubicin was used as a reference drug. The DMSO was added to dissolve the crystals of formazan. We used the ThermoScientific Evolution 201 UV–VIS spectrophotometer (ThermoFisher Scientific, Waltham, MA, USA) to measure the absorbance of formazan at 570 nm. The initial value of the relative number of cells in control (under 0.1% of the DMSO) was accepted as 100%. We used GraphPad Prism Version 9 to calculate the half-maximal inhibition concentration (IC50) of the studied compounds (the concentration of the drug that reduced cell viability by 50%).

HCC1954 cells [6] = assay: MTT assay; format: cell-based; conditions: Homo sapiens, read-out: IC50, µM (M ± SD)
Protocol: as §2, §3

MCF-7 cells [7] = assay: MTT assay; format: cell-based; conditions: Homo sapiens, read-out: IC50, µM (M ± SD)
Protocol: as §2, §3

MDA-MB-231 cells [8] = assay: MTT assay; format: cell-based; conditions: Homo sapiens, read-out: IC50, µM (M ± SD)
Protocol: as §2, §3

T-47D cells = assay: MTT assay; format: cell-based; conditions: Homo sapiens, T47D, read-out: IC50, µM (M ± SD)
Protocol: as §2, §3

[9] = test system: normal human keratinocytes (HaCaT); set-up: method as in PMID 37579525; conditions: cited from earlier work
[10] = test system: mitogen-activated lymphocytes collected from the peripheral blood of a healthy donor; set-up: method as in PMID 37579525; conditions: cited from earlier work
4T1 cells = assay: MTT assay; format: cell-based, murine; conditions: Mus musculus, read-out: IC50, µM (M ± SD)
Protocol: as §2, §3

MCF-10A cells [11] = assay: MTT assay; format: cell-based, human
Protocol: as §2, §3

[12] = Homo sapiens, MCF-10A, 24 h, MCF-10A, 24 h, read-out: IC50, µM (M ± SD)
[13] = Homo sapiens, MCF-10A, 48 h, MCF-10A, 48 h, read-out: IC50, µM (M ± SD)
[14] = Homo sapiens, MCF-10A, time point not specified (24 and 48 h), read-out: IC50 towards MCF-10A cells
[15] = time point not specified (24 and 48 h), read-out: IC50 towards MCF-10A cells

`O=C1CC(N2C(=O)C(=CC(Cl)=Cc3ccc([N+](=O)[O-])cc3)SC2=S)C(=O)N1c1ccc(Cl)cc1` (stereo not drawn) [Les-6294, 1-(4-chlorophenyl)-3-[5-[2-chloro-3-(4-nitrophenyl)prop-2-enylidene]-4-oxo-2-thioxothiazolidine-3-yl]pyrrolidine-2,5-dione] gave an IC50 (MCF-10A cells [1]) greater than 50 µM, an inhibition at 50 µM (MCF-10A cells [1]) of 37.1% and an IC50 (HCC1954 cells [2]) of 3.05 ± 0.03 µM. For the same compound, the IC50 (MCF-7 cells [3]) was 1.33 ± 0.1 µM, the formation of colonies (MCF-7 cells [3]) was “totally inhibited” and the IC50 (MDA-MB-231 cells [4]) was 0.67 ± 0.08 µM. For the same compound, the formation of colonies (MDA-MB-231 cells [4]; MDA-MB-231, compound at 5 µM) was “did not observe the growth”, the IC50 [5] was 1.37 to 21.9 µM and the “selectivity index (SI = IC50 for MCF-10A/IC50 for human breast tumor cells)” value [5] was 4.57–37.59. The IC50 (HCC1954 cells [6]; HCC1954, 24 h) was 4.53 ± 0.18 µM, the IC50 (HCC1954 cells [6]; HCC1954, 48 h) was 5.01 ± 0.23 µM and the IC50 (MCF-7 cells [7]; MCF7, MCF-7, 24 h) was 6.74 ± 0.64 µM. The IC50 (MCF-7 cells [7]; MCF7, MCF-7, 48 h) was 3.54 ± 0.14 µM, the IC50 (MDA-MB-231 cells [8]; MDA-MB-231, 24 h) was 21.9 ± 9.92 µM and the IC50 (MDA-MB-231 cells [8]; MDA-MB-231, 48 h) was 3.72 ± 0.22 µM. The IC50 (T-47D cells; 24 h) was 4.48 ± 0.51 µM, the IC50 (T-47D cells; 48 h) was 2.66 ± 0.21 µM and the IC50 [9] was greater than 73.6 µM. For the same compound, the IC50 [10] was 29 to 67 µM, the IC50 (4T1 cells; 4T1, 24 h) was 2.2 ± 0.19 µM and the IC50 (4T1 cells; 4T1, 48 h) was 2.22 ± 0.25 µM. It also gave an IC50 (MCF-10A cells [11]; [12]) greater than 100 µM, an IC50 (MCF-10A cells [11]; [13]) greater than 100 µM and an IC50 (MCF-10A cells [11]; [14]) greater than 100 µM. It also gave an IC50 (MCF-10A cells [11]; [15]) greater than 64.6 µM.

`O=C1CC(N2C(=O)C(=CC(Cl)=Cc3ccc([N+](=O)[O-])cc3)SC2=S)C(=O)N1c1ccc(Br)cc1` (stereo not drawn) [Les-6328, 1-(4-bromophenyl)-3-[5-[2-chloro-3-(4-nitrophenyl)prop-2-enylidene]-4-oxo-2-thioxothiazolidine-3-yl]pyrrolidine-2,5-dione] gave an IC50 (MCF-10A cells [1]) greater than 50 µM, an inhibition at 50 µM (MCF-10A cells [1]) of 25.9% and an IC50 (HCC1954 cells [2]) of 1.54 ± 0.02 µM. The IC50 (MCF-7 cells [3]) was 1.57 ± 0.12 µM, the formation of colonies (MCF-7 cells [3]) was “totally inhibited” and the IC50 (MDA-MB-231 cells [4]) was 1.19 ± 0.03 µM. For the same compound, the formation of colonies (MDA-MB-231 cells [4]; MDA-MB-231, compound at 2.5 µM) was “did not observe the growth”, the IC50 [5] was 1.37 to 21.9 µM and the “selectivity index (SI = IC50 for MCF-10A/IC50 for human breast tumor cells)” value [5] was 10.09–50.76. It also gave an IC50 (HCC1954 cells [6]; HCC1954, 24 h) of 9.91 ± 0.17 µM, an IC50 (HCC1954 cells [6]; HCC1954, 48 h) of 6.4 ± 0.25 µM and an IC50 (MCF-7 cells [7]; MCF7, MCF-7, 24 h) of 3.26 ± 0.4 µM. It also gave an IC50 (MCF-7 cells [7]; MCF7, MCF-7, 48 h) of 2.18 ± 0.19 µM, an IC50 (MDA-MB-231 cells [8]; MDA-MB-231, 24 h) of 6.09 ± 0.33 µM and an IC50 (MDA-MB-231 cells [8]; MDA-MB-231, 48 h) of 2.01 ± 0.12 µM. It also gave an IC50 (T-47D cells; 24 h) of 4.08 ± 0.56 µM, an IC50 (T-47D cells; 48 h) of 1.97 ± 0.58 µM and an IC50 (4T1 cells; 4T1, 24 h) of 2.25 ± 0.34 µM. The IC50 (4T1 cells; 4T1, 48 h) was 1.94 ± 0.15 µM, the IC50 (MCF-10A cells [11]; [12]) was greater than 100 µM and the IC50 (MCF-10A cells [11]; [13]) was greater than 100 µM. It also gave an IC50 (MCF-10A cells [11]; [14]) greater than 100 µM and an IC50 (MCF-10A cells [11]; [15]) greater than 64.6 µM.
